Measured values published in US20040224958A1, “Pyridopyrimidinone derivatives for treatment of neurodegenerative disease” (priority 2000, published 2004).
Like-named read-outs stand apart in the source and are kept apart here.

Experiments:
[1] = molecular target: Cdk5/p25 (Homo sapiens, UniProt Q00535); assay: Cyclin-Dependent Kinase 5 (cdk5) Assay; type: biochemical
Description: Cyclin-Dependent Kinase 5 (cdk5) Assay
Enzyme assays for IC50 determinations and kinetic evaluation were performed in 96-well filter plates (Millipore MAPH NOB 10). […] All components except histone and ATP were added to wells, and the plate was placed on a shaker for 5 minutes. The reaction was started by adding histone and [^32P]ATP, and the plate was shaken at 30° C. for 45 minutes. The reaction was terminated by addition of 0.1 mL of 150 mM phosphoric acid. The plate was kept at 4° C. for 30 minutes to allow substrate to precipitate. The wells were then washed three times with 0.2 mL of 75 mM phosphoric acid and ^32P incorporation was determined with a beta plate counter (Wallac Inc, Gaithersburg, Md.).

[2] = molecular target: cdk4/D (Homo sapiens, UniProt P11802); assay: Cyclin-Dependent Kinase 4 (cdk4) Assay; type: biochemical
cdk4/D, sequence (P11802 whole entry): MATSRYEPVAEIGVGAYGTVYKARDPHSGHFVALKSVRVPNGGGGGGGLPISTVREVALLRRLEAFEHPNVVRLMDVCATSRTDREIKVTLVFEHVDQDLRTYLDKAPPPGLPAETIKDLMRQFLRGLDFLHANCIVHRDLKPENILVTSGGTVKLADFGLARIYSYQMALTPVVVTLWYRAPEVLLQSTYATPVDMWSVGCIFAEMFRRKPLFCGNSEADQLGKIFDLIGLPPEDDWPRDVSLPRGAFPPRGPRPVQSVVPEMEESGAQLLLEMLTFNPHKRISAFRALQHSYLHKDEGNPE
cdk4/D, sequence (P24385 whole entry, further chain): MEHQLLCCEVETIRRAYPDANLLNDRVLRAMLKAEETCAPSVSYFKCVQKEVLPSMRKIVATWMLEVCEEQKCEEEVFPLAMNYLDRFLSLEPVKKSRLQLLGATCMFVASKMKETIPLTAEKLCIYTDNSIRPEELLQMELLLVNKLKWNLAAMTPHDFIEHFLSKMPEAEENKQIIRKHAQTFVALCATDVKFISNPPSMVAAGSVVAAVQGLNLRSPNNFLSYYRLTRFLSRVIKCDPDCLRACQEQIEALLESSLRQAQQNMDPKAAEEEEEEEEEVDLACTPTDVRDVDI

[3] = molecular target: cdk2/cyclinA (Homo sapiens, UniProt P24941); assay: Cyclin-Dependent Kinase Assay cdk2/cyclinA
Description: Cyclin-Dependent Kinase Assays (cdk2/cyclinE, cdk2/cyclinA, cdc2/cyclinB)
All components except the ATP were added to the wells, and the plate was placed on a plate mixer for 2 minutes. The reaction was begun by addition of [^32P]ATP, and the plate was incubated at 25° C. for 15 minutes. The reaction was terminated by addition of 0.1 mL of 20% TCA. The plate was kept at 4° C. for at least 1 hour to allow the substrate to precipitate. The wells were then washed five times with 0.2 mL of 10% TCA and ^32p incorporation determined with a beta plate counter (Wallac Inc., Gaithersburg, Md.).

[4] = molecular target: cdk2/cyclinE (Homo sapiens, UniProt P24941); assay: Cyclin-Dependent Kinase Assay cdk2/cyclinE
[5] = molecular target: cdc2/cyclinB (Homo sapiens, UniProt P06493); assay: Cyclin-Dependent Kinase Assay cdc2/cyclinB
cdc2/cyclinB, sequence (P06493 whole entry): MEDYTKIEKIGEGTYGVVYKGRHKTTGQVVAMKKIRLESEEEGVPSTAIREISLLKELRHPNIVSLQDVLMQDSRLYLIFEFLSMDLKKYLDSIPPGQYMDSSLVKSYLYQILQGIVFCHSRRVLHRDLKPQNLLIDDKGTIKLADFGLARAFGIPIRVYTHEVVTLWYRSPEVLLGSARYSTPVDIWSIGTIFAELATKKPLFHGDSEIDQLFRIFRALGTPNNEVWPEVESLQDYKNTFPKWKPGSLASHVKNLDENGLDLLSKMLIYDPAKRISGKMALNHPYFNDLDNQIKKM
cdc2/cyclinB, sequence (P14635 whole entry, further chain): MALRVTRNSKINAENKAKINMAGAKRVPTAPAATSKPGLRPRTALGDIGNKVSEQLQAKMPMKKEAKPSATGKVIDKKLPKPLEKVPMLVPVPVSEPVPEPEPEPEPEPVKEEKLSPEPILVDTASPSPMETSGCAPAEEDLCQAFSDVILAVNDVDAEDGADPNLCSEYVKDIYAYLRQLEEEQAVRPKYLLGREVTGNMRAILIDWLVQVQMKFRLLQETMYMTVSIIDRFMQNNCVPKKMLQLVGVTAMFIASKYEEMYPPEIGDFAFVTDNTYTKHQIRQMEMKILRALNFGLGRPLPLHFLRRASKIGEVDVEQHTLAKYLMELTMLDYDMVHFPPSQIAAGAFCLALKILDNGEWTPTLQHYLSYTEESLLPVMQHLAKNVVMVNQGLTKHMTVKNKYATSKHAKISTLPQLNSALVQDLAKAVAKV

Compound	IC50 ([1]; Table 1)	melting point	IC50 ([2]; Table 1, read-out: cdk4/D IC50)	other results
CCN(CC)CCOc1ccc(Nc2ncc3ccc(=O)n(CC)c3n2)cc1 [Example 52, 2-[4-(2-Diethylaminoethoxy)-phenylamino]-8-ethyl-8H-pyrido[2,3-d]-pyrimidin-7-one]	155 nM	128 to 129 °C	–	–
O=c1ccc2cnc(Nc3ccc(N4CCC(CCN5CCOCC5)CC4)cc3)nc2n1C1CCCCC1 [Example 258]	–	245 to 246 °C	7.5 nM	IC50 ([3]; cdk2/A IC50, Table 1): 73.3 nM; IC50 ([4]; cdk2/E IC50, Table 1): 200 nM; IC50 [5]: 599 nM
CCn1c(=O)c(C)cc2cnc(Nc3ccc(N4CCN(C)CC4)cc3)nc21 [Example 84, 8-Ethyl-6-methyl-2-[4-(4-methyl-piperazin-1-yl)-phenylamino]-8H-pyrido[2,3-d]pyrimidin-7-one]	765 nM	198 to 200 °C	–	–
CC1CN(c2ccc(Nc3ncc4ccc(=O)n(C5CC6CCC5C6)c4n3)cc2)CC(C)N1 (stereo not drawn) [Example 255]	32.1 nM	–	3 nM	IC50 ([3]; read-out: cdk2/A IC50, Table 1): 67.5 nM; IC50 ([4]; read-out: cdk2/E IC50, Table 1): 124 nM; IC50 ([5]; read-out: cdk1/B IC50, Table 1): 335 nM
CN1CCN(c2ccc(Nc3ncc4ccc(=O)n(C5CC5)c4n3)cc2)CC1 [Example 136, 8-Cyclopropyl-2-[4-(4-methyl-piperazin-1-yl)-phenylamino]-81H-pyrido[2,3-d]pyrimidin-7-one]	240 nM	210 to 211 °C	–	–
O=c1ccc2cnc(Nc3ccc(N4CCCCC4)cc3)nc2n1[C@H]1C[C@H]2CC[C@@H]1C2 (relative stereo) [Example 229, 8-Dicyclo[2.2.1]hept-2-yl-2-(4-piperidin-1-yl-phenylamino)-8H-pyrido[2,3-d]pyrimidin-7-one]	288 nM	–	2800 nM	IC50 ([3]; cdk2/A IC50, Table 1): 996 nM; IC50 ([4]; cdk2/E IC50, Table 1): 3000 nM; IC50 [5]: 440 nM
CC(C)Cn1c(=O)ccc2cnc(Nc3ccccc3)nc21 [Example 42, 8-Isobutyl-2-phenylamino-8H-pyrido[2,3-d]pyrimidin-7-one]	15 nM	170 to 171 °C	–	–
CCN1C(=O)CCc2cnc(Nc3ccccc3)nc21 [Example 69, 8-Ethyl-2-phenylamino-5,8-dihydro-6H-pyrido[2,3-d]pyrimidin-7-one]	65 nM	146 to 147 °C	–	–
COC(=O)Cn1c(=O)ccc2cnc(Nc3ccccc3)nc21 [Example 36]	–	232 to 233 °C	31000 nM	–
O=c1ccc2cnc(Nc3ccc(N4CCCC(O)C4)cc3)nc2n1C1CC2CCC1C2 (stereo not drawn) [Example 254]	44.9 nM	–	3.5 nM	IC50 ([3]; cdk2/A IC50, Table 1): 28 nM; IC50 ([4]; cdk2/E IC50, Table 1): 64 nM; IC50 [5]: 175 nM
CCn1c(=O)ccc2cnc(Nc3ccc(OC)cc3)nc21 [Example 51, 8-Ethyl-2-(4-methoxyphenylamino)-8H-pyrido[2,3-d]pyrimidin-7-one]	49 nM	196 to 197 °C	–	–
8-Isopropyl-2-(4-methoxy-phenylamino)-8H-pyrido[2,3-d]pyrimidin-7-one [Example 622]	–	–	–	IC50 ([2]; Table 3, read-out: Cdk4 IC50): 4080 nM; IC50 ([3]; read-out: Cdk2/A IC50, Table 3): 392 nM; IC50 ([4]; read-out: Cdk2/E IC50, Table 3): 540 nM; IC50 ([1]; Table 3): 30 nM
CCN(CC)CCOc1ccc(Nc2ncc3ccc(=O)n(CCOCc4ccccc4)c3n2)cc1 [Example 139]	–	95 to 97 °C	2860 nM	IC50 ([4]; cdk2/E IC50, Table 1): 2630 nM
CC(C)n1c(=O)ccc2cnc(Nc3ccc(N4CCN(C)CC4)cc3)nc21 [Example 60, 8-Isopropyl-2-[4-(4-methylpiperazin-1-yl)-phenylamino]-8H-pyrido[2,3-d]-pyrimidin-7-one]	17 nM	–	–	–
O=c1ccc2cnc(Nc3ccc(SC(F)(F)F)cc3)nc2n1C1CC2CCC1C2 (stereo not drawn) [Example 221, 8-Bicyclo[2.2.1]hept-2-yl-2-(4-trifluoromethylsuffanyl-phenylamino)-8H-pyrido[2,3-d]pyrimidin-7-one]	349 nM	–	320 nM	IC50 ([3]; read-out: cdk2/A IC50, Table 1): 370 nM; IC50 ([4]; read-out: cdk2/E IC50, Table 1): 511 nM; IC50 ([5]; read-out: cdk1/B IC50, Table 1): 1120 nM
CCn1c(=O)ccc2cnc(Nc3ccc(N(C)C)cc3)nc21 [Example 93, 2-(4-Dimethylamino-phenylamino)-8-ethyl-8H-pyrido[2,3-d]pyrimidin-7-one]	64 nM	189 to 191 °C	–	–
O=c1ccc2cnc(Nc3ccccc3)nc2n1C1CC1 [Example 135, 8-Cyclopropyl-2-phenylamino-8H-pyrido[2,3-d]pyrimidin-7-one]	493 nM	191 to 193 °C	–	–
CCOC(=O)C=Cc1cnc(Nc2ccccc2)nc1N [Example 28, Ethyl 3-(4-Amino-2-phenylamino-pyrimidin-5-yl)acrylate]	–	190 to 192 °C	–	IC50 ([2]; Table 2, Formula II compounds, read-out: cdk4 IC50): 65000 nM
8-Ethyl-2-(pyrimidin-4-ylamino)-8H-pyrido[2,3-d]pyrimidin-7-one [Example 50]	27 nM	–	2000 nM	–
O=c1ccc2cnc(Nc3ccccc3)nc2n1-c1ccccc1 [Example 101, 2-Phenylamino-8-phenyl-8H-pyrido[2,3-d]pyrimidin-7-one]	165 nM	–	–	–
O=c1ccc2cnc(Nc3ccc(N4CCCCC4)cc3)nc2n1C1CCOC1 (racemic) [Example 200, 2-(4-Piperidin-1-yl-phenylamino)-8-(tetrahydro-furan-3-yl)-8H-pyrido[2,3-d]pyrimidin-7-one]	–	181 to 182 °C	219 nM	IC50 ([3]; cdk2/A IC50, Table 1): 285 nM; IC50 ([4]; cdk2/E IC50, Table 1): 1900 nM; IC50 [5]: 4340 nM
O=c1ccc2cnc(Nc3ccc(F)cc3)nc2n1C1CCCCC1 [Example 148, 8-Cyclohexyl-2-(4-fluoro-phenylamino)-8H-pyrido[2,3-d]pyrimidin-7-one]	–	209 to 211 °C	197 nM	IC50 ([3]; cdk2/A IC50, Table 1): 77.5 nM; IC50 ([4]; cdk2/E IC50, Table 1): 53.5 nM; IC50 [5]: 1820 nM
O=c1ccc2cnc(Nc3ccc(N4CCCCC4)cc3)nc2n1C1CCCCCC1 [Example 163, 8-Cycloheptyl-2-(4-piperidin-1-yl-phenylamino)-8H-pyrido[2,3-d]primidin-7-one]	150 nM	–	31.5 nM	IC50 ([3]; read-out: cdk2/A IC50, Table 1): 66.8 nM; IC50 ([4]; read-out: cdk2/E IC50, Table 1): 193 nM; IC50 ([5]; read-out: cdk1/B IC50, Table 1): 642 nM
O=c1ccc2cnc(Nc3ccccc3)nc2[nH]1 [Example 32, 2-Phenylamino-8H-pyrido[2,3-d]pyrimidin-7-one]	1430 nM	–	–	–
CCC(CC)n1c(=O)ccc2cnc(Nc3ccccc3)nc21 [R′=H, R″=H, R2=1-ethylpropyl, 8-(1-Ethylpropyl)-2-phenylamino-8H-pyrido[2,3-d]pyrimidin-7-one]	–	–	–	IC50 ([2]; Table 3, read-out: Cdk4 IC50): 159 nM; IC50 ([3]; Cdk2/A IC50, Table 3): 127 nM; IC50 ([4]; Cdk2/E IC50, Table 3): 200 nM; IC50 ([1]; Table 3): 8.7 nM
CN(C)CCCN1CCN(c2ccc(Nc3ncc4ccc(=O)n(C5CCCCC5)c4n3)cc2)CC1 [Example 144]	39.4 nM	–	16 nM	IC50 ([3]; read-out: cdk2/A IC50, Table 1): 102 nM; IC50 ([4]; read-out: cdk2/E IC50, Table 1): 43 nM; IC50 ([5]; read-out: cdk1/B IC50, Table 1): 344 nM
CC(C)(C)OC(=O)C1CCCN1c1ccc(Nc2ncc3ccc(=O)n(C4CCCCC4)c3n2)cc1 (stereo not drawn) [Example 170, 1-[4-(8-Cyclohexyl-7-oxo-7,8-dihydro-pyrido[2,3-d]pyrimidin-2-ylamino)-phenyl]-pyrrolidine-2-carboxylic acid tert-butyl ester]	–	144 to 145 °C	–	–
CCC(C)n1c(=O)ccc2cnc(Nc3ccccc3)nc21 (stereo not drawn) [Example 85, 8-sec-Butyl-2-phenylamino-8H-pyrido[2,3-d]pyrimidin-7-one]	–	155 to 156 °C	–	–
CCn1c(=O)ccc2cnc(Nc3ccc(-n4cccc4)cc3)nc21 [Example 110, 8-Ethyl-2-(4-pyrrol-1-yl-phenylamino)-8H-pyrido[2,3-d]pyrimidin-7-one]	–	220 to 222 °C	–	–
